{"source": "paper PMC10392676", "about": "“Structural basis of anti-SARS-CoV-2 activity of HCQ: specific binding to N protein to disrupt its interaction with nucleic acids and LLPS” (QRB Discovery, 2021)", "key": {"[1]": {"target": "NTD of SARS-CoV-2 nucleocapsid (N) protein (Severe acute respiratory syndrome coronavirus 2, UniProt P0DTC9)", "test": "1H-15N HSQC NMR titration, […] MHz, one-site fit of chemical shift differences, average of […] residues", "assay_type": "binding"}, "[2]": {"target": "CTD of SARS-CoV-2 nucleocapsid (N) protein (Severe acute respiratory syndrome coronavirus 2, UniProt P0DTC9)", "test": "1H-15N HSQC NMR titration, […] MHz, one-site fit of chemical shift differences, average of […] residues", "assay_type": "binding"}}, "data": [{"smiles": "CCN(CCO)CCCC(C)Nc1ccnc2cc(Cl)ccc12", "note": "(centres unmarked) [Hydroxychloroquine]", "values": [{"measurement": "Kd", "setting": "[1]", "result": "112 ± 32.2", "unit": "µM"}, {"measurement": "Kd", "setting": "[2]", "result": "52.1 ± 17.6", "unit": "µM"}]}]}
